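Briefly, cells in 96-well plates were exposed to five compound concentrations for 48 h, and endpoints were estimated by linear interpolation. The concentration for 50% growth inhibition is given as GI50.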 Activity calls are given as the source filed them. Cut-off read from the data, not from the text of the source: active = GI50 up to about 1.1 µM and inactive = higher.
Experiments:
Test in all cases: growth of human tumour cells (NCI), 48 h
[1] = test system: TK-10
[2] = test system: RXF 393
[3] = test system: M14
[4] = test system: SK-MEL-2
[5] = test system: MDA-MB-231
[6] = test system: LOX IMVI
[7] = test system: PC-3
[8] = test system: SNB-19
[9] = test system: OVCAR-3
[10] = test system: MDA-MB-435
[11] = test system: UACC-62
[12] = test system: SR
[13] = test system: HCT-116
[14] = test system: IGROV-1
[15] = test system: NCI-H23
[16] = test system: OVCAR-5
[17] = test system: HOP-92
[18] = test system: OVCAR-4
[19] = test system: COLO 205
[20] = test system: CAKI-1

In the case of `Cc1c2oc3c(C)cnc(C(=O)NC4C(=O)NC(C(C)C)C(=O)N5CCCC5C(=O)N(C)CC(=O)N(C)C(C(C)C)C(=O)OC4C)c3nc-2c(C(=O)NC2C(=O)NC(C(C)C)C(=O)N3CCCC3C(=O)N(C)CC(=O)N(C)C(C(C)C)C(=O)OC2C)c(N)c1=O` (stereo not given), the GI50 [1] is reported as 22.9 µM (inactive), the GI50 [2] is reported as 1.12 µM (active) and the GI50 [3] is reported as 3.4 µM (inactive). The GI50 [4] was 0.431 µM (active), the GI50 [5] was 9.77 µM (inactive) and the GI50 [6] was 0.348 µM (active). The GI50 [7] was 2.67 µM (inactive), the GI50 [8] was 0.682 µM (active) and the GI50 [9] was 10.4 µM (inactive). The GI50 [10] was 2.74 µM (inactive), the GI50 [11] was 1.32 µM (inactive) and the GI50 [12] was 0.575 µM (active). For the same compound, the GI50 [13] was 0.396 µM (active), the GI50 [14] was 0.687 µM (active) and the GI50 [15] was 3.24 µM (inactive). The GI50 [16] was 13.2 µM (inactive), the GI50 [17] was 2.84 µM (inactive) and the GI50 [18] was 10.8 µM (inactive). For the same compound, the GI50 [19] was 1.8 µM (inactive) and the GI50 [20] was 10.9 µM (inactive).

From ChEMBL document CHEMBL1201862, “PubChem BioAssay data set” (2004)
